For the experiment, the target named is histone deacetylase HD-1, RPD3 homologue (Zea mays). As to the kind of experiment: Inhibition of in vitro enzyme activity measured in a highly purified maize Histone deacetylase 1 preparation.

The structures appear in SMILES notation. pIC50: −log10 of the molar value.

One may read the pIC50 as the negative decadic logarithm of the IC50, by convention in mol/L. Higher therefore signals a small IC50. For the compound `O=C(CCCCCCC(=O)N[C@@H](Cc1ccccc1)C(=O)NCc1ccccc1)NO` [Octanedioic acid ((S)-1-benzylcarbamoyl-2-phenyl-ethyl)-amide hydroxyamide], the pIC50 is 7.40.
Compound `O=C(CCCCCCC(=O)N[C@@H](Cc1ccccc1)C(=O)NCCc1ccccc1)NO` [Octanedioic acid hydroxyamide ((S)-1-phenethylcarbamoyl-2-phenyl-ethyl)-amide] gave a pIC50 of 7.60.

The values above are taken from BindingDB's records for doi:10.1021/jm0208119 (Westfälische Wilhelms-Universität Münster, 2002).
